Measurements published in PubChem BioAssay AID328 (DTP/NCI, 2004).
Several values for one entry are separate records, joined by “and”; a condition that tells them apart may be missing. Equal values may be shown once. Toxic doses and inconclusive results are not listed.

Test system: BDF1 mice, P388 leukemia ip, median survival T/C
Assay: NCI In Vivo Anticancer Drug Screen. Data for tumor model P388 Leukemia (intraperitoneal) in B6D2F1 (BDF1) mice
Conditions: endpoint: median survival time, higher = longer survival
How it was run: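 Reported as T/C, where T is the survival measurement in dosed animals and C the same measurement in vehicle controls.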

[1] = dose: 100.0 mg/kg/injection, schedule: Q04DX002 (ip), vehicle: saline with Tween-80
[2] = dose: 200.0 mg/kg/injection, schedule: Q04DX002 (ip), vehicle: saline with Tween-80
[3] = dose: 12.5 mg/kg/injection, schedule: Q01DX009 (ip), vehicle: saline with Tween-80
[4] = dose: 25.0 mg/kg/injection, schedule: Q01DX009 (ip), vehicle: saline with Tween-80
[5] = dose: 50.0 mg/kg/injection, schedule: Q01DX009 (ip), vehicle: saline with Tween-80
[6] = dose: 100.0 mg/kg/injection, schedule: Q04DX003 (ip), vehicle: saline
[7] = dose: 100.0 mg/kg/injection, schedule: Q01DX009 (ip), vehicle: saline with Tween-80
[8] = dose: 200.0 mg/kg/injection, schedule: Q01DX009 (ip), vehicle: saline with Tween-80
[9] = dose: 50.0 mg/kg/injection, schedule: Q04DX003 (ip), vehicle: saline with Tween-80
[10] = dose: 100.0 mg/kg/injection, schedule: Q04DX003 (ip), vehicle: saline with Tween-80
[11] = dose: 200.0 mg/kg/injection, schedule: Q04DX003 (ip), vehicle: saline with Tween-80
[12] = dose: 400.0 mg/kg/injection, schedule: Q01DX009 (ip), vehicle: saline with Tween-80
[13] = dose: 400.0 mg/kg/injection, schedule: Q04DX003 (ip), vehicle: saline with Tween-80

Oc1cc(Cl)c(Cl)c(Cl)c1
T/C [1]: 102 % of control
T/C [2]: 98 % of control
T/C (dose: 400.0 mg/kg/injection, schedule: Q04DX002 (ip), vehicle: saline with Tween-80): 97 % of control

C=C(C)C12OC3(c4ccccc4)OC1C1C4OC4(CO)C(O)C4(O)C(=O)C(C)=CC4C1(O3)C(C)C2OC(=O)c1ccccc1 (configuration not stated)
T/C (dose: 6.3 micrograms/kg/injection, schedule: Q01DX009 (ip), vehicle: saline + alcohol): 106 % of control
T/C (dose: 12.5 micrograms/kg/injection, schedule: Q01DX009 (ip), vehicle: saline + alcohol): 108 % of control
T/C (dose: 200.0 micrograms/kg/injection, schedule: Q01DX009 (ip), vehicle: saline + alcohol): 150 % of control

NC(=S)N/N=C/c1ccc(-c2ccccc2)cc1
T/C [3]: 90 % of control
T/C [4]: 109 % of control
T/C [5]: 86 % of control

O=[As]O
T/C (dose: 2.0 mg/kg/injection, schedule: Q01DX009 (ip), vehicle: saline): 115 % of control
T/C (dose: 4.0 mg/kg/injection, schedule: Q01DX009 (ip), vehicle: saline): 123 % of control
T/C (dose: 8.0 mg/kg/injection, schedule: Q01DX009 (ip), vehicle: saline): 150 % of control

CC(=O)Nc1ccc(S(=O)(=O)F)cc1[N+](=O)[O-]
T/C (dose: 25.0 mg/kg/injection, schedule: Q04DX003 (ip), vehicle: saline): 100 % of control
T/C (dose: 50.0 mg/kg/injection, schedule: Q04DX003 (ip), vehicle: saline): 100 % of control
T/C [6]: 115 % of control

COC(=O)C(CSCSCc1ccccc1)NC(=O)C(CSCc1ccccc1)NC(=O)CCNC(=O)OCc1ccccc1 (configuration not stated)
T/C (dose: 1.56 mg/kg/injection, schedule: Q04DX003 (ip), vehicle: Klucel (hydroxypropylcellulose) (HPC)): 101 % of control
T/C (dose: 3.13 mg/kg/injection, schedule: Q04DX003 (ip), vehicle: Klucel (hydroxypropylcellulose) (HPC)): 120 % of control
T/C (dose: 12.5 mg/kg/injection, schedule: Q04DX003 (ip), vehicle: Klucel (hydroxypropylcellulose) (HPC)): 101 % of control
T/C (dose: 25.0 mg/kg/injection, schedule: Q04DX003 (ip), vehicle: Klucel (hydroxypropylcellulose) (HPC)): 111 % of control

Cc1cccc2c1CC(C(C)C)C2 (configuration not stated)
T/C [7]: 123 % of control
T/C [8]: 103 % of control

CCCCCCCCCCCCOc1ccccc1
T/C [9]: 100 % of control
T/C [10]: 109 % of control
T/C [11]: 100 % of control

CC1=CC(=O)c2ccccc2C1=O
T/C (dose: 8.8 mg/kg/injection, schedule: Q01DX010 (ip), vehicle: carboxymethylcellulose (CMC)): 110 % of control
T/C (dose: 13.3 mg/kg/injection, schedule: Q01DX010 (ip), vehicle: carboxymethylcellulose (CMC)): 110 % of control
T/C (dose: 20.0 mg/kg/injection, schedule: Q01DX010 (ip), vehicle: carboxymethylcellulose (CMC)): 90 % of control
T/C (dose: 30.0 mg/kg/injection, schedule: Q01DX010 (ip), vehicle: carboxymethylcellulose (CMC)): 115 % of control

CCOC(=O)C(=CNc1ccccc1OC)C(=O)OCC
T/C (dose: 1.56 mg/kg/injection, schedule: Q01DX009 (ip), vehicle: saline with Tween-80): 112 % of control
T/C (dose: 3.12 mg/kg/injection, schedule: Q01DX009 (ip), vehicle: saline with Tween-80): 104 % of control
T/C (dose: 6.25 mg/kg/injection, schedule: Q01DX009 (ip), vehicle: saline with Tween-80): 102 % of control
T/C [3]: 102 % of control and 116 % of control
T/C [4]: 98 % of control and 123 % of control
T/C [5]: 100 % of control and 116 % of control and 121 % of control
T/C [9]: 99 % of control
T/C [7]: 102 % of control and 114 % of control
T/C [10]: 96 % of control
T/C [8]: 109 % of control
T/C [11]: 96 % of control
T/C [12]: 106 % of control
T/C [13]: 96 % of control

O=C(NN(Cn1c(=S)sc2ccccc21)Cn1c(=S)sc2ccccc21)c1ccncc1
T/C (dose: 6.25 mg/kg/injection, schedule: Q01DX009 (ip), vehicle: Klucel (hydroxypropylcellulose) (HPC)): 102 % of control
T/C (dose: 12.5 mg/kg/injection, schedule: Q01DX009 (ip), vehicle: Klucel (hydroxypropylcellulose) (HPC)): 120 % of control
T/C (dose: 25.0 mg/kg/injection, schedule: Q01DX009 (ip), vehicle: Klucel (hydroxypropylcellulose) (HPC)): 118 % of control

CN(CCCOS(C)(=O)=O)CCCOS(C)(=O)=O
T/C (dose: 2.2 mg/kg/injection, schedule: Q04DX003 (ip), vehicle: saline): 104 % of control
T/C (dose: 3.4 mg/kg/injection, schedule: Q04DX003 (ip), vehicle: saline): 113 % of control
T/C (dose: 5.0 mg/kg/injection, schedule: Q01DX010 (ip), vehicle: saline): 150 % of control
T/C (dose: 10.0 mg/kg/injection, schedule: Q01DX010 (ip), vehicle: saline): 196 % of control
T/C (dose: 19.0 mg/kg/injection, schedule: Q04DX003 (ip), vehicle: saline): 172 % of control
T/C [4]: 263 % of control
T/C (dose: 29.0 mg/kg/injection, schedule: Q04DX003 (ip), vehicle: saline with Tween-80): 209 % of control
T/C (dose: 40.0 mg/kg/injection, schedule: Q01DX010 (ip), vehicle: saline): 230 % of control
T/C (dose: 66.0 mg/kg/injection, schedule: Q04DX003 (ip), vehicle: saline with Tween-80): 300 % of control
T/C (dose: 80.0 mg/kg/injection, schedule: Q01DX010 (ip), vehicle: saline): 107 % of control
T/C [10]: 300 % of control
T/C [6]: 118 % of control
T/C (dose: 150.0 mg/kg/injection, schedule: Q04DX003 (ip), vehicle: saline with Tween-80): 100 % of control
T/C (dose: 150.0 mg/kg/injection, schedule: Q04DX003 (ip), vehicle: saline): 254 % of control

O=S(=O)(CCBr)CCBr
T/C [5]: 100 % of control
T/C [7]: 104 % of control
T/C [10]: 100 % of control
T/C [11]: 100 % of control

CC1CC=C(C2CC(C)CC(N(C)C)C2=N)CC1 (configuration not stated)
T/C (dose: 12.5 mg/kg/injection, schedule: Q01DX009 (sc), vehicle: olive oil, sesame oil, peanut oil): 104 % of control
T/C (dose: 25.0 mg/kg/injection, schedule: Q01DX009 (sc), vehicle: olive oil, sesame oil, peanut oil): 109 % of control
T/C (dose: 50.0 mg/kg/injection, schedule: Q01DX009 (sc), vehicle: olive oil, sesame oil, peanut oil): 113 % of control
T/C (dose: 100.0 mg/kg/injection, schedule: Q04DX003 (sc), vehicle: olive oil, sesame oil, peanut oil): 91 % of control
T/C (dose: 200.0 mg/kg/injection, schedule: Q04DX003 (sc), vehicle: olive oil, sesame oil, peanut oil): 104 % of control
T/C (dose: 400.0 mg/kg/injection, schedule: Q04DX003 (sc), vehicle: olive oil, sesame oil, peanut oil): 116 % of control

CC(C)C(=O)[O][Sn]([c]1ccccc1)([c]1ccccc1)[c]1ccccc1
T/C [3]: 123 % of control

Cc1sc(C)c2c1C[Se]Cc1c(C)sc(C)c1C[Se]C2
T/C (dose: 12.5 mg/kg/injection, schedule: Q01DX001 (ip), vehicle: saline with Tween-80): 95 % of control
T/C (dose: 25.0 mg/kg/injection, schedule: Q01DX001 (ip), vehicle: saline with Tween-80): 107 % of control
T/C (dose: 50.0 mg/kg/injection, schedule: Q01DX001 (ip), vehicle: saline with Tween-80): 118 % of control

CCNC(=O)Nc1ccc(N(CC)CC)cc1
T/C [10]: 100 % of control
T/C [11]: 100 % of control
T/C [13]: 100 % of control

CC1CNCC(C)N1C(=O)c1ccccc1 (configuration not stated)
T/C (dose: 0.1 mg/kg/injection, schedule: Q01DX009 (ip), vehicle: water): 96 % of control
T/C (dose: 0.2 mg/kg/injection, schedule: Q01DX009 (ip), vehicle: water): 105 % of control
T/C (dose: 0.4 mg/kg/injection, schedule: Q01DX009 (ip), vehicle: water): 115 % of control
T/C (dose: 0.78 mg/kg/injection, schedule: Q04DX003 (ip), vehicle: water): 97 % of control
T/C (dose: 1.56 mg/kg/injection, schedule: Q04DX003 (ip), vehicle: water): 104 % of control
T/C (dose: 3.12 mg/kg/injection, schedule: Q04DX003 (ip), vehicle: water): 104 % of control
T/C (dose: 6.25 mg/kg/injection, schedule: Q04DX003 (ip), vehicle: water): 88 % of control

COc1ccc(O)c(/C=C/c2cc[n+](C)cc2)c1
T/C [1]: 91 % of control
T/C [2]: 97 % of control

NC(=O)C1=NNc2ccccc2C(=O)N1c1ccccc1
T/C [10]: 108 % of control
T/C [11]: 113 % of control
T/C [13]: 103 % of control

Cc1ccc(S(=O)(=O)N(C)c2cc(Cl)c(C(N)=O)c(Cl)c2)cc1
T/C (dose: 6.25 mg/kg/injection, schedule: Q01DX001 (ip), vehicle: saline sonified): 95 % of control
T/C (dose: 12.5 mg/kg/injection, schedule: Q01DX001 (ip), vehicle: saline sonified): 100 % of control
T/C (dose: 25.0 mg/kg/injection, schedule: Q01DX001 (ip), vehicle: saline sonified): 100 % of control
T/C [5]: 112 % of control
T/C [7]: 95 % of control
T/C [10]: 105 % of control
T/C [8]: 114 % of control
T/C [11]: 97 % of control
T/C [12]: 95 % of control
T/C [13]: 106 % of control
